Patent US20210290593A1, “USE OF SUSTAINED-RELEASE 5-HYDROXYTRYPTOPHAN IN TREATING GASTROINTESTINAL DISORDERS” (Duke University, priority 2018, published 2021)
“Also recorded” adds a separate entry of the source. Like-named read-outs stand apart in the source and are kept apart here.

Key:
[1] = Human 5-HTP gastrointestinal regional absorption study (plasma 5-HTP); format: in vivo; details: for bioavailability: read-out: Absolute bioavailability F; for Cmax: read-out: Maximal average 5-HTP plasma (CMax) levels
Procedure: Determination of absolute and regional intestinal bioavailability of 5-HTP in humans.
The free base form of 5-HTP was used (5-HTP has a water solubility of >10 mg/mL).
Colonic: 5-HTP free base saline solution 200 mg.
Intravenous: 5-HTP free base saline solution 50 mg.
Oral/Upper GI: Two 5-HTP gelatin tablets of 100 mg 5-HTP free base (200 mg total dose).
Healthy male and female volunteers aged 18 to 65 years with a body mass index (BMI) of 19 to 28 were eligible for the study. Subjects were admitted to the investigational medical unit (IMU) 2 h before 5-HTP administration and remained at the IMU for 24 h following, for blood sampling and safety assessment.
All subjects (n=12) received 5-HTP mg on 3 occasions. (1) Intra-colonic 200 mg 5-HTP solution by colonoscopy. (2) Intravenous 50 mg (IV). (3) Upper GI (oral) 5-HTP 200 mg. At least 6 days passed between each visit.
Plasma samples were collected over 24-hours after 5-HTP administration. Plasma samples were stored at −80° C. until analysis. 5-HTP and the metabolite 5-hydroxyindole-acetic-acid (5-HIAA) were quantified by liquid chromatography with mass-spectrometry detection.
The PK data were analyzed using noncompartmental (NCA) and compartmental (mixed effects) mathematical modelling approaches, to calculate area 5-HTP plasma under the curve (AUC) for each subject for each 5-HTP administration.
From FIG. 10, the area under the curve (AUC) for each route of administration was obtained, which was then used to calculate the absolute bioavailability (F) of the oral and colon routes of administration. For example, the formula for calculating F for a drug administered by the oral route (po) is given below (D is dose): […]

[2] = test system: WT and R439H mice; experiment: Total gastrointestinal transit time (oral carmine red); format: in vivo, mouse; details: 30 mg/kg intraperitoneal
Procedure: Carmine red (300 μl; 6%; Sigma-Aldrich) suspended in 0.5% methylcellulose, which cannot be absorbed, was administered by gavage to study total GI transit time. Total GI transit time was considered as the interval between gavage and the appearance of carmine red in stool (Kimball et al, 2005).

[3] = test system: mice; experiment: Morphine-induced constipation (colonic motility); format: in vivo, mouse
From the text: FIG. 8. Morphine-induced constipation and reversal by 5-HTP in mice.

[4] = one rodent study; cited from earlier work
[5] = Water solubility; format: physicochemical; details: free base
[6] = test system: isolated colon of WT and R439H mice; experiment: Colonic migrating motor complexes (CMMC) measured in vitro; design: species or system mouse
Procedure: The entire colon (5-6 cm) was removed and mounted to allow spontaneous motor patterns to be video-imaged for the construction of spatiotemporal maps (Roberts et al, 2008; Roberts et al, 2007). The isolated colon was incubated in Krebs' solution until endogenous fecal pellets were expelled. The empty colon was cannulated at both ends, mounted in a horizontal organ bath, and both luminal and serosal compartments were superfused with oxygenated Krebs' solution at 35° C. The height of a reservoir connected to the oral cannula was adjusted to maintain intraluminal pressure at +2 cm HO. The anal cannula provided a maximum of 2 cm of back-pressure. The contractile activity was imaged with a Logitech Quickcam pro camera positioned 7-8 cm above the gut. Preparations were equilibrated for 30 min and four 15 min videos were captured. Spatiotemporal maps of the diameter at each point along the proximo-distal length of colon were constructed and used to quantify the frequency of CMMCs as well as the velocity and length of their propagation (Margolis et al, 2016b; Welch et al, 2014). CMMCs were defined as constrictions of the diameter of the bowel that propagated for at least 50% of the length of the preparations. For studies utilizing IR 5-HTP, a dose response curve was conducted whereby the isolated colons were exposed to concentrations of 5-HTP ranging from 1 to 10 μM, both intraluminally and extraluminally.

[7] = test system: animals; experiment: Colonic motility, prucalopride vs 5-HTP; format: in vivo; details: in animals
From the text: FIG. 9. Colonic motility. Effect of prucalopride vs 5-HTP.

[8] = test system: WT and R439H mice; experiment: Colonic propulsion (glass bead expulsion time); format: in vivo, mouse
Procedure: Mice were anesthetized with isoflurane (Baxter Pharmaceutical Products) and a glass bead (3 mm in diameter) was pushed with a fire-polished glass rod through the anus into the colon to a distance of 2 cm from the anal verge (Li et al, 2006). The time required for the mice to expel the bead was determined and used to estimate in vivo colorectal propulsion.

[9] = after administration of exogenous 5-HTP; cited from earlier work
[10] = test system: R439H mice; details: cited from earlier work

Compound: N[C@@H](Cc1c[nH]c2ccc(O)cc12)C(=O)O [5-HTP, 5-hydroxytryptophan]
- Absorption in upper intestine compared to colon [1]: 5 times
- AUC ([1]; both sexes, plasma, intravenous dosing 50 mg): 2040 ng·h/mL
- bioavailability ([1]; both sexes, plasma, oral 200 mg (upper GI tract)): 20%
- AUC ([1]; both sexes, plasma, oral dosing 200 mg): 1500 ng·h/mL
- Cmax ([1]; both sexes, plasma, other: intra-colonic by colonoscopy, 200 mg, intra-colonic 200 mg): 40 to 50 ng/mL
- AUC ([1]; both sexes, plasma, other: intra-colonic by colonoscopy, colonic dosing 200 mg): 312 ng·h/mL
- bioavailability ([1]; both sexes, plasma, other: intra-colonic by colonoscopy, intra-colonic 200 mg): 4%
- Relative upper GI:colon bioavailability ([1]; both sexes, plasma, other: upper GI (oral) and intra-colonic compared, 200 mg, read-out: Relative upper GI tract:colon bioavailability (RBA)): 20%
- Cmax ([1]; both sexes, plasma, po, 200 mg, oral 200 mg): 370 ng/mL
- Maximal average 5-HTP plasma (CMax) levels ([1]; intra-colonic 200 mg): 47 ng/mL
- Total in vivo GI transit time [2]: 74.9 ± 19.5 min
- Colonic motility, 5-HTP by itself ([3]; 5-HTP 30 mg/kg): enhanced colonic motility
- Effect on morphine-induced constipation (colonic motility) ([3]; 5-HTP 30 mg/kg with morphine 10 mg/kg): reversed the morphine-induced constipation
- Absorption by the colon vs the upper intestine [4]: absorbed equally well by the colon and the upper intestine
- solubility [5]: > 10000 µg/mL
- CMMC frequency ([6]; R439H colon, extraluminal 1 μM): 0.78±0.18 CMMC/min
- CMMC velocity ([6]; R439H colon, extraluminal 1 μM): 3.2±0.2 mm/s
- CMMC frequency ([6]; R439H colon, intraluminal 1 μM): 1.02±0.10 CMMC/min
- CMMC velocity ([6]; R439H colon, intraluminal 1 μM): 2.7±0.2 mm/s
- CMMC frequency ([6]; WT colon, extraluminal 1 μM): 0.60±0.20 CMMC/min
- CMMC velocity ([6]; WT colon, extraluminal 1 μM): 1.4±0.5 mm/s
- CMMC frequency ([6]; WT colon, intraluminal 1 μM): 0.90±0.06 CMMC/min
- CMMC velocity ([6]; WT colon, intraluminal 1 μM): 2.3±0.2 mm/s
- Efficacy (maximal effect) on colonic motility compared to prucalopride [7]: higher efficacy
- Potency on colonic motility compared to prucalopride [7]: higher potency; also recorded: more potent than prucalopride at lower doses
- Time of colonic bead expulsion ([8]; 30 mg/kg intraperitoneal): 7.2 ± 1.6 min
- Time of colonic bead expulsion ([8]; 100 mg/kg intraperitoneal): 5.2 ± 1.6 min
- 5-HTP plasma levels needed to produce systemic pharmacological effects [9]: over 100 ng/ml

Compound: CN1CC[C@]23c4c5ccc(O)c4O[C@H]2[C@@H](O)C=C[C@H]3[C@H]1C5 [Morphine, reference compound]
- Colonic motility ([3]; morphine 10 mg/kg): induced constipation, as determined by slowed colonic motility

Compound: CNCCC(Oc1ccc(C(F)(F)F)cc1)c1ccccc1 (stereo not shown) [fluoxetine]
- CNS 5-HT levels [10]: further decline in CNS 5-HT levels
- Depressive behaviors [10]: worsened their depressive behaviors
